Test results taken from patent US9938273B2 (Plexxikon Inc., priority 2015, dated 2018).
pIC50: −log10 of the molar value.

Assays:
FLT3-ITD = target: T1, FLT3-ITD (Homo sapiens, UniProt P36888); test: AlphaScreen kinase assay with recombinant enzyme, FLT3-ITD; assay type: biochemical; conditions: 8pt; read-out: FLT3_ITD 8pt: IC50
T1 sequence (P36888 1-993): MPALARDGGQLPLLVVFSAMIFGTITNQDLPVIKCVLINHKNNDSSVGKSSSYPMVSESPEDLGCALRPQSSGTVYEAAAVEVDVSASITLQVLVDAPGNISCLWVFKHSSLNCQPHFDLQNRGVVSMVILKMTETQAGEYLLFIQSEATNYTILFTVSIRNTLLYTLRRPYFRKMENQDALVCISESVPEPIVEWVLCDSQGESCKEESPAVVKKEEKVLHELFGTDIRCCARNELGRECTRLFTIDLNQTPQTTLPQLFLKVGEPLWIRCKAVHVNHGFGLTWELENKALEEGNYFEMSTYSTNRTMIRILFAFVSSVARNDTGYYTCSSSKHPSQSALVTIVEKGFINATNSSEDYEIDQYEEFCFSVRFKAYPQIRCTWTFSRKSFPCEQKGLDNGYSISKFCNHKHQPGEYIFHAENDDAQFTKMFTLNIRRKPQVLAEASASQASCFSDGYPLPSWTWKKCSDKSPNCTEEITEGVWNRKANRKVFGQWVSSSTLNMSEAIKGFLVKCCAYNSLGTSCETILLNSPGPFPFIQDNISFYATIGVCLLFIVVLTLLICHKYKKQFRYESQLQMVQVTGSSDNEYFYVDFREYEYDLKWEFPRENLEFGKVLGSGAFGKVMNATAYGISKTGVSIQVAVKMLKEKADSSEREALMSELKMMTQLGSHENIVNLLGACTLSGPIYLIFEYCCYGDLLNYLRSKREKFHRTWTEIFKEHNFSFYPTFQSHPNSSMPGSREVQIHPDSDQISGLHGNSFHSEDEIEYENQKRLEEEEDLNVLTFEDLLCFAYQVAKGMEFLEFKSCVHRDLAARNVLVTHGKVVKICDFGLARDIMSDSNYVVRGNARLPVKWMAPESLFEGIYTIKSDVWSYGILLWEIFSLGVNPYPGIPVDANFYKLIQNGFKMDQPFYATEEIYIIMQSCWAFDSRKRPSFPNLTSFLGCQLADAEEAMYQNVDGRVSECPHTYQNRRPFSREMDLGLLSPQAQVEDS
Procedure, shortened: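 Recombinant kinase phosphorylates biotinylated poly(Glu4-Tyr) peptide (30 nM final); streptavidin donor and anti-phosphotyrosine PY20 acceptor beads (10 μg/mL final) give a 580 nm proximity signal on 680 nm excitation. IC50 determinations used a final concentration of 10 μM for FLT3-D835Y/FLT3-ITD and 100 μM for c-KIT.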

[1] = tested on: MOLM-14 F691L cells, FLT3 ITD and FLT3 F691L; test: Cell proliferation assay (CellTiter-Glo), MOLM-14 F691L; assay type: cell-based; conditions: Homo sapiens, 72 h, 3d-Growth, GMean
Procedure, shortened: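 MOLM-14 AML cells (endogenous FLT3 ITD, AC220-selected D835Y or F691L variants) or murine Ba/F3 expressing full-length FLT3 ITD/D835Y, without IL-3 for FLT3 dependence, 1×10^4 cells/well. Eight-point 1:3 series from 1 μM final, 0.2% DMSO, 3 days at 37 °C. CellTiter-Glo luminescence (ATP) gave IC50.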

SMILES | pIC50 (FLT3-ITD) | pIC50 [1]
N#CC1(F)CCN(C(=O)c2cccc(-c3cnc4[nH]c(-c5ccccc5)cc4c3)n2)C1 (centres unmarked) [Compound P-0115, 3-fluoro-1-[6-(2-phenyl-1H-pyrrolo[2,3-b]pyridin-5-yl)pyridine-2-carbonyl]pyrrolidine-3-carbonitrile] | 5.00 to 10.00 | 5.00 to 10.00
N#CC1(NC(=O)c2cccc(-c3cnc4[nH]c(-c5ccccc5)cc4c3)n2)CCCC1 [Compound P-0146, N-(1-cyanocyclopentyl)-6-(2-phenyl-1H-pyrrolo[2,3-b]pyridin-5-yl)pyridine-2-carboxamide] | 5.00 to 10.00 | 5.00 to 10.00
CC(C)(C#N)NC(=O)c1cccc(-c2cnc3[nH]c(-c4cn[nH]c4)cc3c2)n1 [Compound P-0183, N-(1-cyano-1-methyl-ethyl)-6-[2-(1H-pyrazol-4-yl)-1H-pyrrolo[2,3-b]pyridin-5-yl]pyridine-2-carboxamide] | 5.00 to 10.00 | 5.00 to 10.00
CC(C)(C#N)NC(=O)c1cccc(-c2cnc3[nH]c(-c4cnn(C(F)F)c4)cc3c2)n1 [Compound P-0164, N-(2-cyanopropan-2-yl)-6-(2-(1-(difluoromethyl)-1H-pyrazol-4-yl)-1H-pyrrolo[2,3-b]pyridin-5-yl)picolinamide] | 5.00 to 10.00 | 5.00 to 10.00
CC(C)(C#N)CNC(=O)c1cccc(-c2cnc3[nH]c(C4=CCCCC4)cc3c2)n1 [Compound P-0123, N-(2-cyano-2-methyl-propyl)-6-[2-(cyclohexen-1-yl)-1H-pyrrolo[2,3-b]pyridin-5-yl]pyridine-2-carboxamide] | 5.00 to 10.00 | 5.00 to 10.00
CC(C)(C#N)CNC(=O)c1cccc(-c2cnc3[nH]c(-c4ccccc4)c(Cl)c3c2)n1 [Compound P-0138, 6-(3-chloro-2-phenyl-1H-pyrrolo[2,3-b]pyridin-5-yl)-N-(2-cyano-2-methyl-propyl)pyridine-2-carboxamide] | 5.00 to 10.00 | 5.00 to 10.00
N#CC1(NC(=O)c2cccc(-c3cnc4[nH]c(-c5ccccc5)cc4c3)n2)CCC1 [Compound P-0114, N-(1-cyanocyclobutyl)-6-(2-phenyl-1H-pyrrolo[2,3-b]pyridin-5-yl)pyridine-2-carboxamide] | 5.00 to 10.00 | 5.00 to 10.00
